US7851654B2, “Chalcone derivatives, pharmaceutically acceptable salt, method for preparation and uses thereof” (Industry-Academic Cooperation Foundation Gyeongsang …, priority 2006, dated 2010)

What was measured:
[1] = system: B-16 melanoma; assay: Melanin synthesis inhibitory activity in B-16 melanoma; format: cell-based, mice; settings: Mus musculus, B16, DMEM with a-MSH and theophylline, read-out: IC50 melanin synthesis inhibition
Protocol: To identify the melanin synthesis inhibitory activities of the chalcone derivatives of the present invention, whitening effects were measured using B-16 melanoma. 2 ml of B-16 melanoma, derived from black mice, was added to the respective wells in concentration of 2×10^4 cells/well on a 6 well plate using DMEM with 10% FBS and cultivated under the conditions of 5% CO2 and 37° C. for twenty four hours. Media were removed after the cultivation and the DMEM used was replaced with DMEM having 10% FBS, 0.2 mM a-MSH and 2 mM theophylline. Subsequently, appropriate amounts of the chalcone compounds of Examples 2 to 6, 8, 13, 14, 17 and 18 were diluted with the same media and added thereto, respectively, to be cultivated under the conditions of 5% CO2 and 37° C. until the cells grew above 80%. The media were removed after the cultivation and the resultant compounds were washed with PBS and processed with […] to collect cell pellets. Collected pellets were moved to 1.5 ml of Eppendorf tubes to be centrifuged at […] for ten minutes. Then, the pellets in which supernatants were removed were dried in an incubator of 60° C. for twenty four hours. Subsequently, 1N NaOH was added thereto to dissolve melanins in the cells. Dissolved melanins are diluted with appropriate amounts of PBS to measure absorbance at 490 nm, thus obtaining melanin inhibitory rates via Equation 1 above (T. Mosmann, J. Immunol. Methods, 1983, 65, 55; P. R. Gorden, J. Invest. Dermatol., 1989, 92, 565). As a comparative example, the same experiment was carried out using albutin.

[2] = system: B-16 melanoma; assay: Cytotoxicity in B-16 melanoma; format: cell-based, mice; settings: melanin test not performed because of cytotoxicity
[3] = molecular target: α-amylase; assay: α-amylase inhibitory activity via analysis of reducing sugars; format: biochemical; settings: 1% starch substrate, DNS reagent, pH 4.5, 37° C., twenty minutes
Protocol: (§1) α-amylase, a kind of glycosidase enzymes, was used to identify glycosidase inhibitory activities of the chalcone derivatives of the present invention. Using 1% starch as substrate, α-amylase activities were measured by measuring the amounts in that α-amylases hydrolyzed the substrates after adding DNS (1% dinitrosalicylic acid, 12% potassium sodium tartrate in 0.4 M NaOH), a color reagent (Bioorg. Med. Chem. Lett., 2002, 12, 2335-2339). 1% starch as substrate was dissolved in acetate buffer (0.05 M, pH 4.5) in test tubes. After preprocessing at 37° C. for ten minutes, the resultant solutions were quantified as 100 μl in tubes. α-amylases of 0.25 unit/ml, prepared with the acetate buffer, were quantified as 100 μl. Subsequently, the chalcone derivatives prepared in Examples 2, 5, 6, 8, 9, 10, 11 and 12 in accordance with the present invention were dissolved in 50% DMSO solvent and quantified as 50 μl, respectively. After reacting the samples quantified at 37° C. for twenty minutes, 300 μl of DNS, the color reagent, were added thereto. Next, the resultant solutions were reacted in boiled water for ten minutes and cooled to measure absorbance at 540 nm, thus obtaining amylase inhibitory rates via equation 1 above. Measured IC50 values of the chalcone derivatives prepared in Examples 2, 5, 6, 8, 9, 10, 11 and 12 for α-amylases were depicted in table 3.

[4] = molecular target: β-amylase; assay: β-amylase inhibitory activity via analysis of reducing sugars; format: biochemical; settings: 1% starch substrate, DNS reagent, same manner as α-amylase test
Protocol: as §1
β-amylase inhibitory activities were measured in the same manner as Experimental example 2 except for using β-amylases as glycosidase and the IC50 values were depicted in Table 3 above.

Compound `OC[C@H]1O[C@@H](Oc2ccc(O)cc2)[C@H](O)[C@@H](O)[C@@H]1O` [Albutin, albutin, reference compound] has an IC50 [1] of 92 µM.
With `O=C(/C=C/c1ccc(O)cc1)c1ccc(O)cc1` [Example 18, 4′,4-dihydroxychalcone] the “cytotoxicity of the compounds” value [2] was “ND (ND denotes the cases where the experiments on the melanin synthesis inhibitory activities in B-16 melanoma were not performed since the cytotoxicity of the compounds was shown as more than 50%)”.
For `O=C(/C=C/c1ccc(O)cc1)c1ccc(NS(=O)(=O)c2ccc(F)cc2)cc1` [Example 5, 4′-(p-fluorobenzenesulfonylamino)-4-hydroxychalcone], the “IC50 α-amylase” value [3] was “NI^a (NI denotes the cases where the inhibitory rates were below 20% measured when the concentration of the chalcone derivatives was 200 μM or means that there were no inhibitory activities for α-, or β-amylases)”, the IC50 [4] was 127 µM and the IC50 [1] was 23.7 µM.
In the case of `O=C(/C=C/c1ccc(O)c(O)c1)c1ccc(NS(=O)(=O)c2ccc(F)cc2)cc1` [Example 11, 4′-(p-fluorobenzenesulfonylamino)-3,4-dihydroxychalcone], the “IC50 α-amylase” value [3] is reported as “NI (NI denotes the cases where the inhibitory rates were below 20% measured when the concentration of the chalcone derivatives was 200 μM or means that there were no inhibitory activities for α-, or β-amylases)” and the “IC50 β-amylase” value [4] is reported as “NI (NI denotes the cases where the inhibitory rates were below 20% measured when the concentration of the chalcone derivatives was 200 μM or means that there were no inhibitory activities for α-, or β-amylases)”.
With `Nc1ccc(C(=O)/C=C/c2ccc(O)cc2)cc1` [Example 8, 4′-amino-4-hydroxychalcone] the IC50 [3] was 269 µM, the “IC50 β-amylase” value [4] was “NI (NI denotes the cases where the inhibitory rates were below 20% measured when the concentration of the chalcone derivatives was 200 μM or means that there were no inhibitory activities for α-, or β-amylases)” and the IC50 [1] was 12.5 µM.
For `Cc1ccc(S(=O)(=O)Nc2cccc(C(=O)/C=C/c3ccc(O)cc3)c2)cc1` [Example 14, 3′-(p-toluenesulfonylamino)-4-hydroxychalcone], the IC50 [1] was 25.6 µM.
`O=C(/C=C/c1ccc(O)c(O)c1)c1ccc(NS(=O)(=O)c2ccccc2)cc1` [Example 9, 4′-benzenesulfonylamino-3,4-dihydroxychalcone] was tested, and the “IC50 α-amylase” value [3] was “NI (NI denotes the cases where the inhibitory rates were below 20% measured when the concentration of the chalcone derivatives was 200 μM or means that there were no inhibitory activities for α-, or β-amylases)” and the IC50 [4] was 206 µM.
`CS(=O)(=O)Nc1ccc(C(=O)/C=C/c2ccc(O)cc2)cc1` [Example 6, 4′-(methanesulfonylamino)-4-hydroxychalcone] gave an IC50 [3] of 194 µM, an IC50 [4] of 65 µM and an IC50 [1] of 20.3 µM.
With `Nc1cccc(C(=O)/C=C/c2ccc(O)cc2)c1` [Example 13, 3′-amino-4-hydroxychalcone] the “cytotoxicity of the compounds” value [2] was “ND (ND denotes the cases where the experiments on the melanin synthesis inhibitory activities in B-16 melanoma were not performed since the cytotoxicity of the compounds was shown as more than 50%)”.
Compound `O=C(/C=C/c1ccc(O)cc1)c1ccc(NS(=O)(=O)c2ccccc2)cc1` [Example 3, 4′-benzenesulfonylamino-4-hydroxychalcone] has an IC50 [1] of 20.6 µM.
`Cc1ccc(S(=O)(=O)Nc2ccc(C(=O)/C=C/c3ccc(O)cc3)cc2)cc1` [Example 2, 4′-(p-toluenesulfonylamino)-4-hydroxychalcone] was tested, and the IC50 [3] was 87.8 µM, the IC50 [4] was 247 µM and the IC50 [1] was 14.8 µM.
`O=C(/C=C/c1ccc(O)c(O)c1)c1ccc(NS(=O)(=O)c2ccc([N+](=O)[O-])cc2)cc1` [Example 10, 4′-(p-nitrobenzenesulfonylamino)-3,4-dihydroxychalcone] gave an IC50 [3] of 37.3 µM and an IC50 [4] of 201 µM.
In the case of `O=C(/C=C/c1ccc(O)cc1)c1ccccc1` [Example 17, 4-hydroxychalcone], the “cytotoxicity of the compounds” value [2] is reported as “ND (ND denotes the cases where the experiments on the melanin synthesis inhibitory activities in B-16 melanoma were not performed since the cytotoxicity of the compounds was shown as more than 50%)”.
In the case of `CS(=O)(=O)Nc1ccc(C(=O)/C=C/c2ccc(O)c(O)c2)cc1` [Example 12, 4′-(methanesulfonylamino)-3,4-dihydroxychalcone], the IC50 [3] is reported as 16.8 µM and the IC50 [4] is reported as 24.8 µM.
For `O=C(/C=C/c1ccc(O)cc1)c1ccc(NS(=O)(=O)c2ccc([N+](=O)[O-])cc2)cc1` [Example 4, 4′-(p-nitrobenzenesulfonylamino)-4-hydroxychalcone], the “cytotoxicity of the compounds” value [2] was “ND^a (ND denotes the cases where the experiments on the melanin synthesis inhibitory activities in B-16 melanoma were not performed since the cytotoxicity of the compounds was shown as more than 50%)”.
